ChEMBL document CHEMBL4351011, “Design, synthesis and biological evaluations of 2-amino-4-(1-piperidine) pyridine derivatives as novel anti crizotinib-resistant ALK/ROS1 dual inhibitors” (Eur J Med Chem, 2019)

How the values were obtained:
HCC78 = assay: cells; details: Homo sapiens, HCC78, 72 h
Description: Antiproliferative activity against ROS1-addicted human HCC78 cells assessed as reduction in cell viability incubated for 72 hrs by MTT assay

[1] = biological target: T1, Proto-oncogene tyrosine-protein kinase ROS (Homo sapiens, UniProt P08922)
A549 = assay: cells; details: Homo sapiens, A549, 72 h
NCI-H3122 = assay: cells; details: Homo sapiens, NCI-H3122, 72 h
Description: Antiproliferative activity against ALK-addicted human NCI-H3122 cells assessed as reduction in cell viability incubated for 72 hrs by MTT assay

[2] = biological target: T1, Proto-oncogene tyrosine-protein kinase ROS; remark: listed apart in the source
[3] = biological target: Epidermal growth factor receptor (Homo sapiens) (UniProt P00533); assay: Inhibition of EGFR (unknown origin) at 1 uM
BaF3 [4] = assay: cells; details: Mus musculus, BaF3, 72 h
Description: Antiproliferative activity against mouse BAF3 cells expressing CD74/ROS1 G2032R mutant assessed as reduction in cell viability incubated for 72 hrs by CCK8 assay

[5] = biological target: T2, ALK tyrosine kinase receptor (Homo sapiens, UniProt Q9UM73)
Target sequence in this assay (Q9UM73 whole entry): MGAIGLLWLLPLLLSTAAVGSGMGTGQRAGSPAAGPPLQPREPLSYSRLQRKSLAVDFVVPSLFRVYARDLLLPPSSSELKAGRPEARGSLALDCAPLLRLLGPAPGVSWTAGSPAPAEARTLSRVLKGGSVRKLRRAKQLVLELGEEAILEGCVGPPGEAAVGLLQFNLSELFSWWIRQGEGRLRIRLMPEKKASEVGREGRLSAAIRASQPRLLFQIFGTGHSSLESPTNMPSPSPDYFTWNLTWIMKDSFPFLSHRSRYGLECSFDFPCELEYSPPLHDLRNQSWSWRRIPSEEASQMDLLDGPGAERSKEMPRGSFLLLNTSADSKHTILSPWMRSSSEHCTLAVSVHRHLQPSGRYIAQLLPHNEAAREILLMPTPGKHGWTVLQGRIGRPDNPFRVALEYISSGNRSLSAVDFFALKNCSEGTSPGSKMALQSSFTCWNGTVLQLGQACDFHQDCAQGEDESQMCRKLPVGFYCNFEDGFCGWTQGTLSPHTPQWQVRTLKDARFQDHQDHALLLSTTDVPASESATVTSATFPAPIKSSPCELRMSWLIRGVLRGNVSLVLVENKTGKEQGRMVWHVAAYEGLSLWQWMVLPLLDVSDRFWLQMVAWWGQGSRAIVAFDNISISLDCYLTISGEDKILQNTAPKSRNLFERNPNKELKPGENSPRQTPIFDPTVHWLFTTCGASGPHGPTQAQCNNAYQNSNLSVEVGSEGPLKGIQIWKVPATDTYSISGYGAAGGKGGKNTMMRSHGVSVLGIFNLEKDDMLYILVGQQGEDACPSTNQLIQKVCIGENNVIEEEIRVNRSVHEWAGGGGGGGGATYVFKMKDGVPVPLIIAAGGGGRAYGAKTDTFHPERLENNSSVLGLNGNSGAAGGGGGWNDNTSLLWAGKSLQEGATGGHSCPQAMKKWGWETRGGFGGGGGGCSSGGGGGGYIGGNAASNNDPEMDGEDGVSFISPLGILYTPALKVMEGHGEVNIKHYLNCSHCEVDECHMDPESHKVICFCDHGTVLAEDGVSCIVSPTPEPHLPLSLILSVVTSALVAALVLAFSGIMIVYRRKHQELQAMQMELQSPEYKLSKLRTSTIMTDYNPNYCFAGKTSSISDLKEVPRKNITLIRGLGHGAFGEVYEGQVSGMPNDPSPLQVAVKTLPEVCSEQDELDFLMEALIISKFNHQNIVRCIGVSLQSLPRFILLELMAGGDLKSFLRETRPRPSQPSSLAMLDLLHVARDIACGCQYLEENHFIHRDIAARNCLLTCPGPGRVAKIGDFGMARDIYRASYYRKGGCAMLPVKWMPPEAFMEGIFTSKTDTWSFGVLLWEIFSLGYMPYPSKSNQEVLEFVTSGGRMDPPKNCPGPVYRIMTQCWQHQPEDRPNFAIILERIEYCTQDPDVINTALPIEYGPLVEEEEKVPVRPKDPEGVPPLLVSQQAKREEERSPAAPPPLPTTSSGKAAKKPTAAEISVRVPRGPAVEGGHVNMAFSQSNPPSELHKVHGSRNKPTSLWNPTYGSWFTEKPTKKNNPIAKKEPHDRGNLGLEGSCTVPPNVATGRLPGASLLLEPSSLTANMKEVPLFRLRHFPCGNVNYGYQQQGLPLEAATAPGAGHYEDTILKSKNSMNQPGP

[6] = biological target: ALK tyrosine kinase receptor (Homo sapiens, UniProt Q9UM73, L1196M)
Description: Inhibition of ALK L1196M mutant (unknown origin) at 1 uM

BaF3 [7] = assay: cells; details: Mus musculus, BaF3, 72 h; remark: listed apart in the source
Description: Antiproliferative activity against mouse BAF3 cells expressing wild type CD74/ROS1 assessed as reduction in cell viability incubated for 72 hrs by CCK8 assay

[8] = biological target: Activated CDC42 kinase 1 (Homo sapiens) (UniProt Q07912); assay: Inhibition of TNK2 (unknown origin) at 1 uM
[9] = biological target: Tyrosine-protein kinase Fes/Fps (Homo sapiens) (UniProt P07332); assay: Inhibition of FES (unknown origin) at 1 uM
[10] = biological target: Vascular endothelial growth factor receptor 2 (Homo sapiens) (UniProt P35968); assay: Inhibition of KDR (unknown origin) at 1 uM
[11] = biological target: Proto-oncogene tyrosine-protein kinase receptor Ret (Homo sapiens) (UniProt P07949); assay: Inhibition of RET (unknown origin) at 1 uM
[12] = biological target: Serine/threonine-protein kinase Nek2 (Homo sapiens) (UniProt P51955); assay: Inhibition of NEK2 (unknown origin) at 1 uM
[13] = biological target: Mitogen-activated protein kinase 9 (Homo sapiens) (UniProt P45984); assay: Inhibition of MAPK9 (unknown origin) at 1 uM
[14] = biological target: T2, ALK tyrosine kinase receptor; details: at 1 µM
BaF3 [15] = assay: Potency index, ratio of crizotinib IC50 to compound IC50 for mouse BAF3 cells expressing CD74/ROS1 G2032R mutant incubated for 72 hrs by CCK8 assay; format: functional
[16] = tested on: ALK tyrosine kinase receptor (Homo sapiens), Q9UM73 [C1156Y]; details: at 1 µM
[17] = biological target: Tyrosine-protein kinase BTK (Homo sapiens) (UniProt Q06187); assay: Inhibition of BTK (unknown origin) at 1 uM
[18] = biological target: Tyrosine-protein kinase JAK2 (Homo sapiens) (UniProt O60674); assay: Inhibition of JAK2 (unknown origin) at 1 uM
[19] = tested on: ALK tyrosine kinase receptor (Homo sapiens), Q9UM73 [L1196M]; assay: Potency index, ratio of crizotinib IC50 to compound IC50 for ALK L1196M mutant (unknown origin) at 1 uM
BaF3 [20] = assay: cells; details: Mus musculus, BaF3, 72 h; remark: listed apart in the source
Description: Antiproliferative activity against mouse BAF3 cells expressing CD74/ROS1 L2026M mutant assessed as reduction in cell viability incubated for 72 hrs by CCK8 assay

[21] = biological target: Insulin-like growth factor 1 receptor (Homo sapiens) (UniProt P08069); assay: Inhibition of IGF1R (unknown origin) at 1 uM
[22] = biological target: Leukocyte tyrosine kinase receptor (Homo sapiens) (UniProt P29376); assay: Inhibition of LTK (unknown origin) at 1 uM
[23] = tested on: ALK tyrosine kinase receptor (Homo sapiens), Q9UM73 [F1174L]; details: at 1 µM
[24] = biological target: Tyrosine-protein kinase Fer (Homo sapiens) (UniProt P16591); assay: Inhibition of FER (unknown origin) at 1 uM
[25] = biological target: CDK2/Cyclin A2 (Homo sapiens) (UniProt P24941+P20248); assay: Inhibition of CDK2/cyclinA (unknown origin) at 1 uM; format: protein-complex assay
[26] = biological target: Hepatocyte growth factor receptor (Homo sapiens) (UniProt P08581); assay: Inhibition of MET (unknown origin) at 1 uM
[27] = tested on: ALK tyrosine kinase receptor (Homo sapiens), Q9UM73 [L1196M]; details: at 1 µM
Description: Inhibition of ALK L1196M mutant (unknown origin) at 1 uM relative to control

[28] = tested on: ALK tyrosine kinase receptor (Homo sapiens), Q9UM73 [R1275Q]; details: at 1 µM
Sequence of ALK tyrosine kinase receptor (Homo sapiens), Q9UM73 [R1275Q] (Q9UM73 whole entry R1275Q): as the sequence (Q9UM73 whole entry) above, with R1275Q counted along it

T1 sequence (P08922 whole entry): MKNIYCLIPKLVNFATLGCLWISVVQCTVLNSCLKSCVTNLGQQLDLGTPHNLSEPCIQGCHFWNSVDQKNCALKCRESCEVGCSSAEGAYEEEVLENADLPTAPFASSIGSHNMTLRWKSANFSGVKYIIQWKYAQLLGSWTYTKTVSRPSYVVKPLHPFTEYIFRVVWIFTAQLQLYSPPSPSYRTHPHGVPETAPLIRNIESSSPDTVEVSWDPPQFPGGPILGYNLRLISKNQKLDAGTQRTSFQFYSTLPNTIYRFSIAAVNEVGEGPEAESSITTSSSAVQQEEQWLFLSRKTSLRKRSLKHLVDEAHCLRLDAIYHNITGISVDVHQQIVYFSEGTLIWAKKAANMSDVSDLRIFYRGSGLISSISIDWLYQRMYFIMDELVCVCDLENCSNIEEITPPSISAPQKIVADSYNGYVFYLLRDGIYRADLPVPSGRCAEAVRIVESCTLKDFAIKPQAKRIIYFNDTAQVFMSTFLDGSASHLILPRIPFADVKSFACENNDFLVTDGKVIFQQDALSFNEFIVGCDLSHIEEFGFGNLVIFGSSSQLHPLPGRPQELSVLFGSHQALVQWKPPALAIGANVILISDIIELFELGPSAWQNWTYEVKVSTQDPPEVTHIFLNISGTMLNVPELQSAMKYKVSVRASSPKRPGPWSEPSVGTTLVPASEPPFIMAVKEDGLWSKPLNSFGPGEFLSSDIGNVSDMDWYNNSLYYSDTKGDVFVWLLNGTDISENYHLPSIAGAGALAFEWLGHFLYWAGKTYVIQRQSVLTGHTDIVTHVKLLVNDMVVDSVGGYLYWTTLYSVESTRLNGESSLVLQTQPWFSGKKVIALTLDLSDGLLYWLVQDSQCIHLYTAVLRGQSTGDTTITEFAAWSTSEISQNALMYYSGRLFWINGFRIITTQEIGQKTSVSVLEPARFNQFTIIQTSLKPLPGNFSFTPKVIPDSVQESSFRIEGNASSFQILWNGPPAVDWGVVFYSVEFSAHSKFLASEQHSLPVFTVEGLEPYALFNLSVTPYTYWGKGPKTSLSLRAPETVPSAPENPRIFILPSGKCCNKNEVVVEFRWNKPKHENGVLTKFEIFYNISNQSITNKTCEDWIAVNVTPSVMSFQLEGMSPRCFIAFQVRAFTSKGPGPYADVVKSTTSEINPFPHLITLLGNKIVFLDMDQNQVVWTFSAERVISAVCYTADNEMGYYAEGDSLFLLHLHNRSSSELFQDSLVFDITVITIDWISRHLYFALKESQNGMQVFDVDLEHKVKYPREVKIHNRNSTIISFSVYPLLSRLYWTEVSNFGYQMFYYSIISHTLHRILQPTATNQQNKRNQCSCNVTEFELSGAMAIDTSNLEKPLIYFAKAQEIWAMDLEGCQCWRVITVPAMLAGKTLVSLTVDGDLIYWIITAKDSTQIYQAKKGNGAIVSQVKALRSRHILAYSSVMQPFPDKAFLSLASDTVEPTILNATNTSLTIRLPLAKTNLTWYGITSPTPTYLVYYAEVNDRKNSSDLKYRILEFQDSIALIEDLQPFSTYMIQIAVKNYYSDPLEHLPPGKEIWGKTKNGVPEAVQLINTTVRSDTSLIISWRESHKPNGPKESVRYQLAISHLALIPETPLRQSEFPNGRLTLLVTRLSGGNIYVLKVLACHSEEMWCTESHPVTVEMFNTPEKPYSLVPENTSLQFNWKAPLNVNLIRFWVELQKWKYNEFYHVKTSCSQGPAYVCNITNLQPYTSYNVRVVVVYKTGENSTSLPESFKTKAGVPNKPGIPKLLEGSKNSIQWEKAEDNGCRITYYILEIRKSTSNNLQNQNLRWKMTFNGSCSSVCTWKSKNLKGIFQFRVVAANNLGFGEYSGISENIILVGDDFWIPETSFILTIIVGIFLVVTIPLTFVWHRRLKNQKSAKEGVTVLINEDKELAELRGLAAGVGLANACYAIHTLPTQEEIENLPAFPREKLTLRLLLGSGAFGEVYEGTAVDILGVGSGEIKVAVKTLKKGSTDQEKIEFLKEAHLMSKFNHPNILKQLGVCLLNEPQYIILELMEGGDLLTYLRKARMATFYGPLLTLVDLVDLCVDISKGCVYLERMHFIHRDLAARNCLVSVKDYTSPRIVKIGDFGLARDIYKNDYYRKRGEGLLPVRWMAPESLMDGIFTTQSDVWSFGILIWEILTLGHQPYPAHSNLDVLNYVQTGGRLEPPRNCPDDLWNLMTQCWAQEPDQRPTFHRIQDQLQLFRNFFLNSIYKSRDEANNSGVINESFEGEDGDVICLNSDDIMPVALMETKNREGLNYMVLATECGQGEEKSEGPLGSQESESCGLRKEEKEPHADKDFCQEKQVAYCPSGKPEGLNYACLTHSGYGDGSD
Sequence of ALK tyrosine kinase receptor (Homo sapiens), Q9UM73 [L1196M] (Q9UM73 whole entry L1196M, looked up): as the sequence (Q9UM73 whole entry) above, with L1196M counted along it
Sequence of ALK tyrosine kinase receptor (Homo sapiens), Q9UM73 [F1174L] (Q9UM73 whole entry F1174L): as the sequence (Q9UM73 whole entry) above, with F1174L counted along it
Sequence of Leukocyte tyrosine kinase receptor (Homo sapiens) (P29376 whole entry): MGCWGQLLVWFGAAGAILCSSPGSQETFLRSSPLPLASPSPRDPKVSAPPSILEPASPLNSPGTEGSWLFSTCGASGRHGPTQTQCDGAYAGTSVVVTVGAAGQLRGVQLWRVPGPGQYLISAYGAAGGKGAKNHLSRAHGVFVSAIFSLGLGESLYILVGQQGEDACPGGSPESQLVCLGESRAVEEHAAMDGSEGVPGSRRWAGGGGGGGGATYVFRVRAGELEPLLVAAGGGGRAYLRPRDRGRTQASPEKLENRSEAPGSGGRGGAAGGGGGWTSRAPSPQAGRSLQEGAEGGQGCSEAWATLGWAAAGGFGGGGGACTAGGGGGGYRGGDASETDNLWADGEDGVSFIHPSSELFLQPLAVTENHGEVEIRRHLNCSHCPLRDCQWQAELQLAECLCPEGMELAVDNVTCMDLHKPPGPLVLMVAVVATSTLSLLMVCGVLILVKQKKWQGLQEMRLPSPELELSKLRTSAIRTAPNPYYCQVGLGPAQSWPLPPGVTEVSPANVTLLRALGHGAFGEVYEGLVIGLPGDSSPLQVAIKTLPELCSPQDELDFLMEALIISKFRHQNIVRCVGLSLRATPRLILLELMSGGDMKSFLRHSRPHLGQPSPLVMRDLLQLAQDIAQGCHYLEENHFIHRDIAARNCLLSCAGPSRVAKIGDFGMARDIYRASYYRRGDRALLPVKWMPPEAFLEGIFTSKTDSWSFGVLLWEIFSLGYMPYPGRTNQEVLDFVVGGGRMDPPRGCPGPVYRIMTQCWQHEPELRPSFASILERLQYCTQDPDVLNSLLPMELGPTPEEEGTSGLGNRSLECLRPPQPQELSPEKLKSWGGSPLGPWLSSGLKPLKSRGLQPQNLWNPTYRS
Sequence of ALK tyrosine kinase receptor (Homo sapiens), Q9UM73 [C1156Y] (Q9UM73 whole entry C1156Y, looked up): as the sequence (Q9UM73 whole entry) above, with C1156Y counted along it

In the case of `Cc1cc(Nc2cc(N3CCC[C@H](C(=O)NCc4ccc(OC(F)(F)F)cc4)C3)ccn2)ccc1NC1CCN(C)CC1`, the IC50 (HCC78) is reported as 7.76 µM, the IC50 [1] is reported as over 10 µM and the IC50 (A549) is reported as 7.07 µM. It also gave an IC50 (NCI-H3122) of 5.1 µM.
For `Cc1ccc(CNC(=O)[C@H]2CCCN(c3ccnc(Nc4cn(C)nc4C)c3)C2)cc1`, the IC50 (HCC78) was 67.2 µM, the IC50 [2] was “Not Active” and the IC50 (A549) was 39.6 µM. It also gave an IC50 (NCI-H3122) of 40.7 µM.
`CN1CCC(n2cc(Nc3cc(N4CCC[C@H](C(=O)NCc5ccc(C#N)cc5)C4)ccn3)cn2)CC1` was tested, and the IC50 (HCC78) was 87.6 µM, the IC50 [2] was “Not Active” and the IC50 (A549) was 53.8 µM. For the same compound, the IC50 (NCI-H3122) was 15.1 µM.
`COc1cc(N2CCNCC2)ccc1Nc1cc(N2CCC[C@H](C(=O)NCc3ccc(OC(F)(F)F)cc3)C2)ccn1` showed an inhibition [3] of 11%, an IC50 (BaF3 [4]) of 0.105 µM and an IC50 [5] of 0.174 µM. For the same compound, the IC50 [6] was 0.0413 µM, the IC50 (BaF3 [7]) was 0.138 µM and the IC50 (HCC78) was 10.7 µM. It also gave an inhibition [8] of -3%, an inhibition [9] of -1% and an inhibition [10] of -3%. The inhibition [11] was -3%, the inhibition [12] was -7% and the IC50 [1] was 0.53 µM. It also gave an IC50 (A549) of 3.64 µM, an inhibition [13] of -10% and an inhibition [14] of 95%. For the same compound, the “Ratio IC50” value (BaF3 [15]) was 6, the inhibition [16] was 100% and the inhibition [17] was -5%. For the same compound, the inhibition [18] was 11%, the Ratio IC50 [19] was 2 and the IC50 (BaF3 [20]) was 0.234 µM. It also gave an inhibition [21] of 3%, an inhibition [22] of 91% and an IC50 (NCI-H3122) of 6.45 µM. The inhibition [23] was 80%, the inhibition [24] was 6% and the inhibition [25] was 1%. The inhibition [26] was 6%, the inhibition [27] was 93% and the inhibition [28] was 92%.
`COc1ccc(CNC(=O)[C@H]2CCCN(c3ccnc(Nc4cnn(C5CCN(C)CC5)c4)c3)C2)cc1OC` was tested, and the IC50 (HCC78) was over 100 µM, the IC50 [2] was “Not Active” and the IC50 (A549) was over 100 µM. The IC50 (NCI-H3122) was over 100 µM.
Compound `COc1cc(Nc2cc(N3CCC[C@H](C(=O)NCc4ccc(C)cc4)C3)ccn2)cc(OC)c1OC` has an IC50 (HCC78) of 24.5 µM, an IC50 [1] of 12.1 µM and an IC50 (A549) of 12.7 µM. It also gave an IC50 (NCI-H3122) of 27.8 µM.
`COc1ccc(CNC(=O)[C@H]2CCCN(c3ccnc(Nc4cn(C)nc4C)c3)C2)cc1OC` was tested, and the IC50 (HCC78) was over 100 µM, the IC50 [2] was “Not Active” and the IC50 (A549) was over 100 µM. For the same compound, the IC50 (NCI-H3122) was over 100 µM.
Compound `Cc1nn(C)cc1Nc1cc(N2CCC[C@H](C(=O)NCc3ccc(OC(F)(F)F)cc3)C2)ccn1` has an IC50 (HCC78) of 34.6 µM, an IC50 [1] of 1.26 µM and an IC50 (A549) of 11.3 µM. For the same compound, the IC50 (NCI-H3122) was 20.2 µM.
With `COc1cc(N2CCN(C)CC2)ccc1Nc1cc(N2CCC[C@H](C(=O)NCc3ccc(OC(F)(F)F)cc3)C2)ccn1` the IC50 (HCC78) was 14.9 µM, the IC50 [1] was 1.08 µM and the IC50 (A549) was 7.79 µM. The IC50 (NCI-H3122) was 7.53 µM.
In the case of `O=C(NCc1ccc(OC(F)(F)F)cc1)[C@H]1CCCN(c2ccnc(Nc3ncccn3)c2)C1`, the IC50 (HCC78) is reported as 36.5 µM, the IC50 [2] is reported as “Not Active” and the IC50 (A549) is reported as 17.2 µM. It also gave an IC50 (NCI-H3122) of 44.3 µM.
With `COc1cc(N2CCC(N3CCN(C)CC3)CC2)ccc1Nc1cc(N2CCC[C@@H](C(=O)NCc3ccc(OC(F)(F)F)cc3)C2)ccn1` the IC50 (HCC78) was 10.9 µM, the IC50 [1] was over 10 µM and the IC50 (A549) was 2.79 µM. For the same compound, the IC50 (NCI-H3122) was 8.86 µM.
For `COc1cc(N2CCC(N3CCN(C)CC3)CC2)ccc1Nc1cc(N2CCC[C@H](C(=O)NCc3ccc(OC(F)(F)F)cc3)C2)ccn1`, the IC50 (HCC78) was 11 µM, the IC50 [1] was 2.26 µM and the IC50 (A549) was 6.6 µM. It also gave an IC50 (NCI-H3122) of 16.6 µM.
Work on `Cc1cc(Nc2cc(N3CCC[C@@H](C(=O)NCc4ccc(OC(F)(F)F)cc4)C3)ccn2)ccc1NC1CCN(C)CC1` yielded an IC50 (HCC78) of 13.5 µM, an IC50 [1] of over 10 µM and an IC50 (A549) of 6.51 µM. It also gave an IC50 (NCI-H3122) of 10.4 µM.
Work on `COc1cc(N2CCC(N3CCOCC3)CC2)ccc1Nc1cc(N2CCC[C@@H](C(=O)NCc3ccc(OC(F)(F)F)cc3)C2)ccn1` yielded an IC50 (HCC78) of 13.7 µM, an IC50 [1] of over 10 µM and an IC50 (A549) of 6.45 µM. The IC50 (NCI-H3122) was 8.3 µM.
In the case of `COc1ccc(CNC(=O)[C@H]2CCCN(c3ccnc(Nc4cnn(C)c4)c3)C2)cc1OC`, the IC50 (HCC78) is reported as over 100 µM, the IC50 [2] is reported as “Not Active” and the IC50 (A549) is reported as over 100 µM. It also gave an IC50 (NCI-H3122) of over 100 µM.
`COc1cc(N2CCC(N3CCOCC3)CC2)ccc1Nc1cc(N2CCC[C@H](C(=O)NCc3ccc(OC(F)(F)F)cc3)C2)ccn1` was tested, and the IC50 (HCC78) was 15.2 µM, the IC50 [1] was 3.39 µM and the IC50 (A549) was 6.93 µM. The IC50 (NCI-H3122) was 5.81 µM.
For `COc1ccc(CNC(=O)[C@H]2CCCN(c3ccnc(Nc4cnn(C5CCNCC5)c4)c3)C2)cc1OC`, the IC50 (HCC78) was 83.7 µM, the IC50 [2] was “Not Active” and the IC50 (A549) was over 100 µM. For the same compound, the IC50 (NCI-H3122) was 51.7 µM.
Work on `COc1cc(N2CCNCC2)ccc1Nc1cc(N2CCC[C@@H](C(=O)NCc3ccc(OC(F)(F)F)cc3)C2)ccn1` yielded an IC50 [5] of 0.56 µM, an IC50 (HCC78) of 25.3 µM and an IC50 [1] of 1.21 µM. The IC50 (A549) was 5.11 µM, the inhibition [14] was 76% and the IC50 (NCI-H3122) was 10.7 µM.
In the case of `Cc1nn(C)cc1Nc1cc(N2CCC[C@@H](C(=O)NCc3ccc(OC(F)(F)F)cc3)C2)ccn1`, the IC50 (HCC78) is reported as 80.7 µM, the IC50 [1] is reported as 7.3 µM and the IC50 (A549) is reported as 9.74 µM. For the same compound, the IC50 (NCI-H3122) was 13.9 µM.
